Columns and labels:
[1] = tested on: collagen deposition; test: Bleomycin-induced lung injury in mice, preventive model (SIRCOL collagen assay); assay type: in vivo; conditions: day 35
Description: (§1) Control animals are subjected to the same protocol but received the same volume of intratracheal saline instead of BLM. Tracheal instillation is carried out under ketamin (80 mg/kg of body weight, i.p.) and xylazine (20 mg/kg de body weight, i.p.) anesthesia.
(§2) […] after endotracheal BLM or saline, the animals are killed by a lethal injection of sodium pentobarbital followed by exsanguination of abdominal aorta. Lungs are weighed and processed separately for biochemical (n=10 lungs per group) and histological studies (n=5 per group) as indicated below. The animals are randomly divided into four groups: control-saline (n=8) and control+BLM (n=15); Compound Dose 1+BLM (n=15) and Compound Dose 2+BLM (N=15). Treatments vehicle or compounds are administered for 5 weeks.
(§3) Mice are treated by daily oral administration of compound according to the invention or saline/control starting on day 0 for five weeks in the preventive model and starting on day 10 up to five weeks for the curative model. Whole lung accumulation of acid-soluble collagen is analyzed by Sircol assay.
The broad lines of the above protocol were followed. […] 35 days after endotracheal BLM or saline, the animals are killed and lungs are processed as indicated above for quantification of collagen deposition and lung inflammation by SIRCOL assay (TebuBio, ref S1000).

[2] = tested on: collagen deposition; test: Bleomycin-induced lung injury in mice, curative model (SIRCOL collagen assay); assay type: in vivo
Description: as §1, §2, §3
The broad lines of the above protocol were followed. At day 0, animals received an intratracheal injection of 0.0125 UI of bleomycin (40 μl) to produce pulmonary lesions. Curative treatment group was orally administered a compound of the invention once a day for 3.5 weeks starting from day 10 to day 35. The animals are randomly divided into six groups: control-saline (n=8); 2 groups control+BLM (n=13); Compound 3 of the invention per os 40 mg/kg+BLM (n=13); Compound 3 of the invention per os 10 mg/kg+BLM (n=13) and Pirfenidone (AQCHEM, ref P1002) at 100 mg/kg per os+BLM (n=13). One bleomycin control group was stopped at day 10, the animals were killed and collagen levels were measured. For the other groups, 35 days after endotracheal BLM or saline, the animals are killed and lungs are processed as indicated above for quantification of collagen deposition and lung inflammation as indicated above. […]

[3] = tested on: NOX activities; test: Chemiluminescence (luminol) ROS measurement in cells; assay type: cell-based; conditions: 'usually'
Description: ROS was measured using the chemiluminescent probe luminol. Cells were cultured and plated as for Amplex Red except that the Amplex Red agent was replaced by 10 μg/mL luminol (Sigma 09235). Light emission was recorded continuously at 37° C. for 60 minutes using the luminescence function of the FluoStar Optima fluorescent plate reader. The mean of the four blank values was subtracted from each corrected value for each time point. NOX activities were expressed as % of the activity in control cells. Residual activity of DPI-treated cells was usually <10%.

[4] = tested on: NOX activities; test: Nitroblue tetrazolium (NBT) superoxide test in cells; assay type: cell-based; conditions: DPI 10 μM, 'usually'
Description: Intracellular and extracellular superoxide was measured by a colorimetric technique using a quantitative nitroblue tetrazolium (NBT) test. SOD-inhibitable conversion of NBT to formazan, a fine blue precipitate, in the presence of superoxide anion was measured using Fluostar Optima spectrometer (BMG labtech). Following incubation with appropriate stimuli, cells were trypsinized (1× Trypsin-EDTA), collected by centrifugation, and washed with PBS to remove medium. 5×10^5 cells were plated on 48-well plates and incubated in Hank's balanced salt solution containing 0.5 mg/mL NBT with or without 800 U/mL SOD in the presence or absence of compounds according to the invention. As a control, DPI was included at a final concentration of 10 μM. After 2.5 h, cells were fixed and washed with methanol to remove non reduced NBT. The reduced formazan was then dissolved in 230 μl of 2M potassium hydroxide and in 280 μl of dimethylsulfoxide. The absorption was measured at 630 nm. For calculation, the absorbance at 630 nm was normalized for each individual well. The mean of the four blank values was subtracted from each corrected value for each time point. NOX activities were expressed as % of the activity in control cells. Residual activity of DPI-treated cells was usually <10%.

[5] = tested on: NOX activities; test: H2DCF-DA ROS measurement in TGF-β stimulated HUVEC; assay type: cell-based, Human; conditions: 'usually'
Description: HUVEC are cultured in endothelial basal medium supplemented with hydrocortisone (1 μg/mL, CalbioChem), bovine brain extract (12 μg/mL), gentamicin (50 μg/mL, CalbioChem), amphotericin B (50 ng/mL, CalBioChem EGF (10 ng/mL, and 10% FCS until the fourth passage. When the fifth passage was started, cells were cultured with a lower concentration of FCS (2%) in the absence of EGF, if not indicated otherwise. All experiments were done with cells of the fifth passage. The cells were incubated with O×LDL (oxidized low-density lipoprotein) or its buffer as control for 24 h, before detection of O2^− formation.
HUVEC were plated on coverslips and made quiescent overnight in 0.5% BSA before stimulation with TGF-β. Cells were loaded for 10 minutes with 5 μM CM-H2DCFDA in phenol-red-free medium in the dark and then treated with TGF-β (R&D Systems) in the presence or absence of compounds according to the invention. Cells were then visualized by immunofluorescence microscopy after fixation and staining of the nuclei with DAPI or examined live using confocal microscopy. DCF fluorescence was visualized at an excitation wavelength of 488 nm and emission at 515 to 540 nm. […] For calculation, the absorbance at […] was normalized to absorbance at […] for each individual well. […] NOX activities were expressed as % of the activity in control cells. […]

[6] = tested on: T1, NOX activity; test: Amplex Red measurement of extracellular hydrogen peroxide (NOX activity) in DMSO-differentiated HL60 cells; assay type: cell-based, Human; conditions: DPI 10 μM, 'usually'
T1 construct: rows headed: Residual activity of DPI-treated cells (NOX activity, % of control cells); other: Amplex Red, DPI 10 μM, 'usually'
Description: Human acute myeloid leukemia cell line HL-60 was cultured in RPMI 1640 (Invitrogen) supplemented with 10% heat-inactivated calf serum, 2 mM glutamine, 100 U/mL penicillin (Sigma), and 100 μg streptomycin (Sigma) at 37° C. under a humidified atmosphere of 5% CO2. HL60 differentiation to the neutrophil phenotype was triggered by adding Me2SO (final concentration 1.25% v/v for 6 days) to the culture medium.
Extracellular hydrogen peroxide was measured using Amplex UltraRed (Molecular Probes). Cells were trypsinized (1× Trypsin-EDTA), collected by centrifugation, and resuspended in HBSS supplemented with 1% glucose. Cells were seeded into black 96-well plates at a density of 50,000 cells in 200 μl testing buffer (HBSS 1% glucose containing 0.005 U/mL horseradish peroxidase (Roche) and 50 μM Amplex Red in the presence or absence of compounds according to the invention. As a control, DPI was included at a final concentration of 10 μM The plates were placed in the fluorescent Optima Fluorescent plate reader and kept at 37° C. during 20 min. Fluorescence was measured for […] with excitation and emission wavelengths of 544 nm and 590 nm respectively. NOX activities were expressed as % of the activity in control cells. Residual activity of DPI-treated cells was usually <10%.

## O=c1c2c3n(c(=O)cc2[nH]n1-c1ccccc1Cl)CCCN(Cc1ccccc1)C3 [Compound 3, 10-benzyl-2-(2-chlorophenyl)-2,3,8,9,10,11-hexahydro-1H-pyrazolo[4′,3′:3,4]pyrido[1,2-a][1,4]diazepine-1,5(7H)-dione]
[1]; 40 mg/kg per os once a day from day 0 for five weeks
  inhibition of collagen deposition as compared to bleomycin control: 46%
[2]; 10 mg/kg per os once a day from day 10 to day 35, mice
  inhibition of collagen deposition as compared to bleomycin control: 64%
[2]; 40 mg/kg per os once a day from day 10 to day 35, mice
  inhibition of collagen deposition as compared to bleomycin control: 52%

## c1ccc([I+]c2ccccc2)cc1 [DPI, Diphenyl-iodonium]
[3]
  Residual activity of DPI-treated cells (NOX activity, % of control cells): < 10%
[4]
  Residual activity of DPI-treated cells (NOX activity, % of control cells): < 10%
[5]
  Residual activity of DPI-treated cells (NOX activity, % of control cells): < 10%
[6]
  Residual activity of DPI-treated cells (NOX activity, % of control cells): < 10%

## Cc1ccc(=O)n(-c2ccccc2)c1 [Pirfenidone]
[1]; 100 mg/kg per os once a day from day 0 for five weeks
  inhibition of collagen deposition as compared to bleomycin control: 45%
[2]; 100 mg/kg per os once a day from day 10 to day 35, mice
  inhibition of collagen deposition as compared to bleomycin control: 12%
